Test results: patent US20250154193A1, “STEROID COMPOUND, AND PREPARATION METHOD THEREFOR AND APPLICATION THEREOF” (CHOLESGEN (SHANGHAI) CO., LTD., priority 2022, published 2025)

Tested on: Ldlr−/− mice
Experiment: AMLN diet-induced fatty liver model: liver tissue section analysis
Format: in vivo
Settings: 30 mg/kg/day, 8 weeks
Experimental: Hematoxylin-eosin staining: The extracted liver was fixed in 4% paraformaldehyde at 4° C., embedded in paraffin, sectioned using a paraffin microtome (Leica RM2235) with a section thickness of […], dewaxed, rehydrated, and stained with Hematoxylin-eosin staining kits ([…]. 6,765,001, 6,766,010, Thermo Scientific). The images were captured with an Olympus VS 120 glass microscope, and quantified using ImageJ software. Oil Red 0 staining: The liver was embedded in OCT embedding medium (Leica), sectioned to a thickness of 7 μm using a cryostat microtome (Leica CM1950), stained with Oil Red 0 (00625, Sigma). The images were captured with an Olympus VS 120 glass microscope, and quantified using ImageJ software. Sirius Red collagen staining: Liver paraffin sections were dewaxed, rehydrated, and stained with Sirius Red staining kit (ab150681, Abcam) according to the manufacturer's instructions. Immunofluorescence staining: The liver was embedded in OCT embedding medium (Leica) and sectioned to a thickness of 7 μm using a cryostat microtome (Leica CM1950). Cryostat sections were stained with anti-F4/80 rat monoclonal antibody (14-4801-85, Invitrogen, 1:100) and Alexa Fluor 488-conjugated goat anti-rat IgG secondary antibody (A-11006, Invitrogen, 1:500), and the nuclei were specifically stained with DAPI (Sigma) 30. After staining and sealing, the images were captured using a spinning disk confocal microscope (Nikon CSU-W1 SoRa), and quantified using ImageJ software. Polarized light imaging of cholesterol crystals: Cryostat sections were stained with F4/80 and DAPI. The images were captured using a spinning disk confocal microscope (Nikon CSU-W1 SoRa) equipped with a polarized light filter, and quantified using ImageJ software. Male C57BL/6J mice and male Ldlr^−/− mice (TOO1464, Jiangsu GemPharmatech Co., Ltd.) at 8 weeks of age were purchased, grouped, fed with different diets, and treated with different drugs. The mice were randomly divided into 4 groups with 8 to 9 mice in each group: One group consisted of C57BL/6J wild-type mice, which was the chow diet (CD) vehicle control group. The other three groups consisted of Ldlr^−/− knockout mice, including chow diet (CD) vehicle control group, AMLN diet (containing […], 22% fructose, and 2% cholesterol) vehicle control group, and AMLN diet combined with 25-hydroxylanosterol administration group (25-hydroxylano sterol was administered at a concentration of 30 mg/kg/day). The mice in four groups were intragastrically administered once a day, during which the changes in food intake and body weight of the mice in different treatment groups were counted. After 8 weeks, blood and liver samples were collected from the mice to analyze blood lipids, liver lipids, and liver damage phenotypes. Furthermore, we performed various staining or immunohistochemical procedures on liver tissue sections from the mice in each group to analyze the phenotypic changes in hepatic lipid accumulation and fatty liver. […] FIGS. 14 to 18 show the results of Oil Red O staining and quantification of liver sections of mice: 25-hydroxylanosterol reduced lipid droplets in the liver. FIGS. 19 to 23 show the results of Sirius Red staining and quantification of liver sections of mice: 25-hydroxylanosterol reduced fibrosis in the liver. FIGS. 24 to 29 show the results of F4/80 immunostaining and quantification of liver sections of mice as well as the results of imaging and quantification of polarized light imaging indicating cholesterol crystals: 25-hydroxylanosterol reduced the aggregation of Kupffer cells and formation of cholesterol crystals in the liver. In FIGS. 9 to 29, quantitative analysis was performed using ImageJ software, and data are represented as mean±standard deviation. P values were calculated using one-way ANOVA; * indicates P<0.05; ** indicates P<0.01; *** indicates P<0.001.

C[C@H](CCCC(C)(C)O)[C@H]1CC[C@@]2(C)C3=C(CC[C@]12C)[C@@]1(C)CC[C@H](O)C(C)(C)[C@@H]1CC3 [compound 68, (1R,3aR,5aR,7S,9aS,11aR)-1-[(2R)-6-hydroxy-6-methylheptan-2-yl]-3a,6,6,9a,11a-pentamethyl-2,3,3a,4,5,5a,6,7,8,9,9a,10,11,11a-tetradecahydro-1H-cyclopenta[1,2-a]phenanthren-7-ol]
significantly reduced: crown-like structure formed by Kupffer cells (F4/80 immunostaining) | fibrotic phenotype of collagen fiber formation in liver sections (Sirius Red) | number of cholesterol crystals in liver sections (polarized light imaging) | accumulation of lipid droplets of neutral lipids in the liver (Oil Red O staining) (vs control group) | macrovesicular lipid droplets and vesicular degenerated hepatocytes in the liver (HE staining) (vs control group) | NAFLD activity scores (HE staining of liver sections)
